Measurements reported in US5488060A, “Substituted thiadiazoles, compositions containing them and their use as antimicrobial and marine antifouling agents” (The Dow Chemical Company, priority 1994, dated 1996).
In brackets after ≈: the same amount, converted by molar mass. Where two headings read alike, the source gives them in different places.

What was measured:
Format in all cases: cell-based
[1] = test system: Klebsiella pneumoniae (Kp); assay: Minimum inhibitory concentration (MIC) in nutrient agar, Klebsiella pneumoniae
Protocol: (§1) The antimicrobial activity of the compounds of the present invention is set forth as the minimum inhibitory concentration (MIC) for the active compounds and is determined for nine (9) bacteria, using nutrient agar, and seven (7) yeast and fungi, using malt yeast agar. This determination is conducted using a one percent solution of the test compound prepared in a mixture of acetone and water.
(§2) Nutrient agar is prepared at pH 6.8, representing a neutral medium, and at pH 8.2, representing an alkaline medium. The nutrient agars are prepared by adding 23 g of nutrient agar to one-liter of deionized water. In addition, the alkaline medium is prepared by adjusting a 0.04M solution of N-[tris-(hydroxymethyl)methyl]glycine buffered deionized water with concentrated sodium hydroxide to a pH of 8.5.
(§3) The test tubes containing the agar are cooled in a water bath until the temperature of the agar is 48° C. Then, an appropriate amount of the one percent solution of the test compound is added (except in the controls where no compound is added) to the respective test tubes so that the final concentrations are 500, […], 100, 50, 25, 10, 5, 2.5, 1.0 and zero parts per million of the test compound in the agar, thus having a known concentration of test compound dispersed therein. The contents of the test tubes are then transferred to respective petri plates. After drying for 24 hours, the petri plates containing nutrient agar are inoculated with bacteria and those containing malt yeast agar are inoculated with yeast and fungi.
(§4) The inoculation with bacteria is accomplished by using the following procedure. Twenty-four hour-cultures of each of the bacteria are prepared by incubating the respective bacteria in tubes containing nutrient broth for 24 hours at 30° C. in a shaker. Dilutions of each of the 24 hour-cultures are made so that nine separate suspensions (one for each of the nine test bacteria) are made, each containing 10^8 colony forming units (CFU) per mL of suspension of a particular bacteria. Aliquots of 0.3 mL of each of the bacterial suspensions are used to fill the individual wells of Steer's Replicator. For each microbial suspension, 0.3 mL was used to fill three wells (i.e., three wells of 0.3 mL each) so that for the nine different bacteria, 27 wells are filled. The Steer's Replicator is then used to inoculate both the neutral and alkaline pH nutrient agar petri plates.
(§5) The inoculated petri plates are incubated at 30° C. for 48 hours and then read to determine if the test compound which is incorporated into the agar prevented growth of the respective bacteria.

Escherichia coli (Ec) = assay: Minimum inhibitory concentration (MIC) in nutrient agar, Escherichia coli; conditions: 48 h
Protocol: as §1, §2, §3, §4, §5

Bacillus subtilis (Bs) = assay: Minimum inhibitory concentration (MIC) in nutrient agar, Bacillus subtilis
Protocol: as §1, §2, §3, §4, §5

[2] = test system: Enterobacter aerogenes (Ea); assay: Minimum inhibitory concentration (MIC) in nutrient agar, Enterobacter aerogenes; conditions: Klebsiella aerogenes, 48 h
Protocol: as §1, §2, §3, §4, §5

[3] = test system: Pseudomonas aeruginosa (Pa); assay: Minimum inhibitory concentration (MIC) in nutrient agar, Pseudomonas aeruginosa; conditions: 30° C., 48 hours, read-out: Minimum Inhibitory Concentration, Pa
Protocol: as §1, §2, §3, §4, §5

[4] = test system: Salmonella choleraesuis (Se); assay: Minimum inhibitory concentration (MIC) in nutrient agar, Salmonella choleraesuis; conditions: Salmonella enterica
Protocol: as §1, §2, §3, §4, §5

[5] = test system: Pseudomonas aeruginosa (PRD-10); assay: Minimum inhibitory concentration (MIC) in nutrient agar, Pseudomonas aeruginosa PRD-10; conditions: 48 h
Protocol: as §1, §2, §3, §4, §5

[6] = test system: Saccharomyces cerevisiae (Sc); assay: Minimum inhibitory concentration (MIC) in malt yeast agar, Saccharomyces cerevisiae
Protocol: as §1
(§6) Malt yeast agar is prepared at pH 5.5 by adding 3 g yeast extract and 45 g malt agar per liter of deionized water. The specific agar is dispensed in 30 mL aliquots into 25×200 mm test tubes, capped and autoclaved for 15 minutes at 115° C.
as §3
(§7) The inoculation with the yeast and fungi is accomplished as follows. Cultures of yeast and fungi are incubated for seven days on malt yeast agar at 30° C. These cultures are used to prepare suspensions by the following procedure. A suspension of each organism is prepared by adding 10 mL of sterile saline and 10 microliters of octylphenoxy polyethoxy ethanol to the agar slant of yeast or fungi. The sterile saline/octylphenoxy potyethoxy ethanol solution is then agitated with a sterile swab to suspend the microorganism grown on the slant. Each resulting suspension is diluted into sterile saline (1 part suspension: 9 parts sterile saline). Aliquots of these dilutions are placed in individual wells of Steer's Replicator and petri plates inoculated as previously described. The petri plates are incubated at 30° C. and read after 48 hours for yeast and 72 hours for fungi.

Trichoderma viride (Tv) = assay: Minimum inhibitory concentration (MIC) in malt yeast agar, Trichoderma viride; conditions: pH 5.5; malt yeast agar, 30° C., 72 hours for fungi; read-out: Minimum Inhibitory Concentration, Tv
Protocol: as §1, §6, §3, §7

Aspergillus niger (An) = assay: Minimum inhibitory concentration (MIC) in malt yeast agar, Aspergillus niger; conditions: pH 5.5; malt yeast agar, 30° C., 72 hours for fungi; read-out: Minimum Inhibitory Concentration, An
Protocol: as §1, §6, §3, §7

Fusarium oxysporum (Fo) = assay: Minimum inhibitory concentration (MIC) in malt yeast agar, Fusarium oxysporum; conditions: pH 5.5; malt yeast agar, 30° C., 72 hours for fungi; read-out: Minimum Inhibitory Concentration, Fo
Protocol: as §1, §6, §3, §7

Proteus vulgaris (Pv) = assay: Minimum inhibitory concentration (MIC) in nutrient agar, Proteus vulgaris; conditions: 48 h
Protocol: as §1, §2, §3, §4, §5

[7] = test system: Aureobasidium pullulan (Ap); assay: Minimum inhibitory concentration (MIC) in malt yeast agar, Aureobasidium pullulan; conditions: pH 5.5, read-out: Minimum Inhibitory Concentration, Ap
Protocol: as §1, §6, §3, §7

Candida albicans (Ca) = assay: Minimum inhibitory concentration (MIC) in malt yeast agar, Candida albicans
Protocol: as §1, §6, §3, §7

[8] = test system: Staphylococcus aureus (Sa); assay: Minimum inhibitory concentration (MIC) in nutrient agar, Staphylococcus aureus
Protocol: as §1, §2, §3, §4, §5

[9] = test system: Penicillium chrysogenum (Pc); assay: Minimum inhibitory concentration (MIC) in malt yeast agar, Penicillium chrysogenum
Protocol: as §1, §6, §3, §7

[10] = 48 h, pH 8.2, read-out: Minimum Inhibitory Concentration, Kp
[11] = pH 6.8, read-out: Minimum Inhibitory Concentration, Ec
[12] = pH 8.2, read-out: Minimum Inhibitory Concentration, Ec
[13] = pH 6.8, nutrient agar, 30° C., 48 hours, read-out: Minimum Inhibitory Concentration, Bs
[14] = pH 6.8, read-out: Minimum Inhibitory Concentration, Ea
[15] = pH 8.2, read-out: Minimum Inhibitory Concentration, Ea
[16] = 48 h, pH 8.2, read-out: Minimum Inhibitory Concentration, SC
[17] = pH 6.8, read-out: Minimum Inhibitory Concentration, PRD
[18] = pH 8.2, read-out: Minimum Inhibitory Concentration, PRD
[19] = pH 6.8, read-out: Minimum Inhibitory Concentration, Pv
[20] = pH 8.2, read-out: Minimum Inhibitory Concentration, Pv
[21] = pH 5.5, malt yeast agar, 30° C., 48 hours for yeast, read-out: Minimum Inhibitory Concentration, Ca
[22] = pH 6.8, nutrient agar, 30° C., 48 hours, read-out: Minimum Inhibitory Concentration, Sa
[23] = pH 6.8, nutrient agar, 30° C., 48 hours, read-out: Minimum Inhibitory Concentration, Kp
[24] = 48 h, pH 8.2, read-out: Minimum Inhibitory Concentration, Bs
[25] = 48 h, pH 6.8, read-out: Minimum Inhibitory Concentration, SC
[26] = pH 5.5, malt yeast agar, 30° C., 48 hours for yeast, read-out: Minimum Inhibitory Concentration, SC
[27] = 48 h, pH 8.2, read-out: Minimum Inhibitory Concentration, Sa

Structure (SMILES)	MIC [1, 10] [µg/mL]	MIC (Escherichia coli (Ec); [11]) [µg/mL]	MIC (Escherichia coli (Ec); [12]) [µg/mL]	MIC (Bacillus subtilis (Bs); [13]) [µg/mL]	MIC [2, 14] [µg/mL]	MIC [2, 15] [µg/mL]	MIC ([3]; pH 6.8, nutrient agar) [µg/mL]	MIC ([3]; pH 8.2, nutrient agar) [µg/mL]	MIC [4, 16] [µg/mL]	MIC [5, 17] [µg/mL]	MIC [5, 18] [µg/mL]	MIC (Trichoderma viride (Tv)) [µg/mL]	MIC (Aspergillus niger (An)) [µg/mL]	MIC (Proteus vulgaris (Pv); [19]) [µg/mL]	MIC (Proteus vulgaris (Pv); [20]) [µg/mL]	MIC [7] [µg/mL]	MIC (Candida albicans (Ca); [21]) [µg/mL]	MIC [8, 22] [µg/mL]	MIC [1, 23] [µg/mL]	MIC (Bacillus subtilis (Bs); [24]) [µg/mL]	other results
N#CSc1nsnc1-c1cccc(Cl)c1 [Example III, 4-(3-Chlorophenyl)-3-thiocyanato-l,2,5-thiadiazole]	500 (≈ 1970 µM)	50 (≈ 197 µM)	500 (≈ 1970 µM)	25 (≈ 98.5 µM)	> 500	> 500	> 500	500 (≈ 1970 µM)	500 (≈ 1970 µM)	> 500	500 (≈ 1970 µM)	2.5 (≈ 9.85 µM)	5 (≈ 19.7 µM)	> 500	500 (≈ 1970 µM)	2.5 (≈ 9.85 µM)	5 (≈ 19.7 µM)	25 (≈ 98.5 µM)	–	–	MIC ([1]; 48 h, pH 6.8, read-out: Minimum Inhibitory Concentration, Kp): 50 µg/mL (≈ 197 µM); MIC (Bacillus subtilis (Bs); pH 8.2, nutrient agar, 30° C., 48 hours, read-out: Minimum Inhibitory Concentration, Bs): 100 µg/mL (≈ 394 µM); MIC ([4]; pH 6.8, nutrient agar, 30° C., 48 hours, read-out: Minimum Inhibitory Concentration, SC): 50 µg/mL (≈ 197 µM); MIC ([6]; 48 h, pH 5.5, read-out: Minimum Inhibitory Concentration, SC): 2.5 µg/mL (≈ 9.85 µM); MIC (Fusarium oxysporum (Fo)): 2.5 µg/mL (≈ 9.85 µM); MIC ([8]; pH 8.2, nutrient agar, 30° C., 48 hours, read-out: Minimum Inhibitory Concentration, Sa): 250 µg/mL (≈ 985 µM)
N#CSc1nsnc1-c1ccc(Br)cc1 [Example VI, 4-(4-Bromophenyl)-3-thiocyanato-1,2,5-thiadiazole]	500 (≈ 1680 µM)	500 (≈ 1680 µM)	500 (≈ 1680 µM)	25 (≈ 83.8 µM)	500 (≈ 1680 µM)	500 (≈ 1680 µM)	500 (≈ 1680 µM)	500 (≈ 1680 µM)	500 (≈ 1680 µM)	500 (≈ 1680 µM)	500 (≈ 1680 µM)	< 1	5 (≈ 16.8 µM)	500 (≈ 1680 µM)	500 (≈ 1680 µM)	2.5 (≈ 8.38 µM)	5 (≈ 16.8 µM)	–	500 (≈ 1680 µM)	500 (≈ 1680 µM)	MIC [4, 25]: 500 µg/mL (≈ 1680 µM); MIC ([9]; 72 h, pH 5.5, read-out: Minimum Inhibitory Concentration, PC): 10 µg/mL (≈ 33.5 µM); MIC [6, 26]: 5 µg/mL (≈ 16.8 µM); MIC ([8]; 48 h, pH 6.8, read-out: Minimum Inhibitory Concentration, Sa): 50 µg/mL (≈ 168 µM); MIC [8, 27]: 500 µg/mL (≈ 1680 µM)
COc1cccc(-c2nsnc2SC#N)c1 [Example VII, a-(3-Methoxyphenyl)-3-thiocyanato-1,2,5-thiadiazole]	500 (≈ 2010 µM)	> 500	500 (≈ 2010 µM)	25 (≈ 100 µM)	> 500	500 (≈ 2010 µM)	> 500	500 (≈ 2010 µM)	500 (≈ 2010 µM)	> 500	500 (≈ 2010 µM)	5 (≈ 20.1 µM)	10 (≈ 40.1 µM)	> 500	500 (≈ 2010 µM)	5 (≈ 20.1 µM)	–	250 (≈ 1000 µM)	> 500	250 (≈ 1000 µM)	MIC [4, 25]: > 500 µg/mL; MIC ([9]; pH 5.5, malt yeast agar, 30° C., 72 hours for fungi, read-out: Minimum Inhibitory Concentration, PC): 25 µg/mL (≈ 100 µM); MIC [6, 26]: 5 µg/mL (≈ 20.1 µM); MIC (Candida albicans (Ca); 48 h, pH 5.5, read-out: Minimum Inhibitory Concentration, Ca): 50 µg/mL (≈ 201 µM); MIC [8, 27]: 500 µg/mL (≈ 2010 µM)
